In patent publication US12692248B2, “Solid state forms of (S)-N-(3-(2-(((R)-1-hydroxypropan-2-yl)amino)-6-morpholinopyridin-4-yl)-4-methylphenyl)-3-(2,2,2-trifluoroethyl)pyrrolidine-1-carboxamide and salts thereof” (PIERRE FABRE MEDICAMENT, priority 2021, dated 2026):
Where two headings read alike, the source gives them in different places.

Columns and labels:
Assay type in all cases: physicochemical
[1] = Stability of Compound 2 in 0.5% MC/0.1% Tween 80 at 10 mg/mL; conditions: suspension 10 mg/mL in 0.5% MC/0.1% Tween 80, RT, 7 days
Experimental: A solution of Compound 2 was evaluated for stability in 0.5% MC/0.1% Tween 80 at 10 mg/mL. 10.7 mg of Compound 2 was weighed into a sample vial, and then 500 μL of 1% MC and 500 μL of 0.2% Tween 80 were added to obtain a suspension at 10 mg/mL (calculated as the free base). The mixture was kept stirring for 15 min at RT and the suspension was placed at RT for 7 days.

[2] = Comparison dissolution trials in water and biorelevant media; conditions: for solubility at 0.5 h: read-out: Solubility (mg/mL) 0.5 h; for solubility at 2 h: read-out: Solubility (mg/mL) 2 h; for solubility at 24 h: read-out: Solubility (mg/mL) 24 h
Experimental: Comparison dissolution trials were performed on Compounds 1 and 2. About 20 mg of each sample was weighed into a sample vial and then 4 mL of media was added to make a suspension. All suspensions were shaken at 37° C. with a rate of 200 rpm. […] He pH of the filtrate was measured, and the filter cake was analyzed by XRPD. […] In biorelevant dissolution media FaSSIF and FeSSIF, the solubility of the Compound 1 and Compound 2 were similar.

[3] = Thermodynamic solubility in 13 solvents at RT and 50° C. by UPLC; conditions: for solubility: thermodynamic from solid; for XRPD at 1 d / XRPD at 4 d: residual solid
Experimental: Thermodynamic solubility of Compound 2 was measured in 13 solvents at RT and 50° C. by UPLC, respectively. […] In most of other selected solvents, the compound was almost insoluble (<0.5 mg/mL) except in EtOH and water where it was slightly soluble (6-9 mg/mL).

[4] = Stability at 60° C. and 40° C. at 75% relative humidity for 9 days (UPLC purity, XRPD); conditions: UPLC; for Purity −3 d: 3 days; for Purity −9 d: 9 days
Experimental: Compound 1 and Compound 2 were evaluated for stability at 60° C. and 40° C. at 75% relative humidity for 9 days. At 0, 3, and 9 days, the samples were dissolved with diluent to prepare a solution for purity analysis by UPLC. Solid samples were also analyzed by XRPD to check the crystal form.

[5] = Dynamic Vapor Sorption (DVS); conditions: DVS
Experimental: Dynamic Vapor Sorption (DVS) Moisture sorption/desorption data was collected on a DVS Intrinsic PLUS (SMS, UK). The sample was placed into a tared sample chamber and automatically weighed. The sample was dried at 40° C./0%0 RH until the dm/dt was less than 0.00200 and cooled to 25° C. [table]

[6] = simulated gastric fluid, thermodynamic from solid, SGF, 37° C.
[7] = thermodynamic from solid, FaSSIF, 37° C.
[8] = thermodynamic from solid, FeSSIF, 37° C.
[9] = thermodynamic from solid, Water, 37° C.

Cc1ccc(NC(=O)N2CC[C@@H](CC(F)(F)F)C2)cc1-c1cc(N[C@H](C)CO)nc(N2CCOCC2)c1.Cl [Compound 2, (S)—N-(3-(2-(((R)-1-hydroxypropan-2-yl)amino)-6-morpholinopyridin-4-yl)-4-methylphenyl)-3-(2,2,2-trifluoroethyl)pyrrolidine-1-carboxamide hydrochloride]
form change [1]: No form change | purity decrease ([1]; UPLC): 0.13% | solubility of Compound 1 and Compound 2 compared ([2]; FaSSIF and FeSSIF): similar | pH of the filtrate ([2]; Water medium): (pH 3.1) | solubility at 0.5 h [2, 6]: 0.2 mg/mL | solubility at 2 h [2, 6]: 0.27 mg/mL | solubility at 24 h [2, 6]: 0.39 mg/mL | solubility at 0.5 h [2, 7]: 0.024 mg/mL | solubility at 2 h [2, 7]: 0.021 mg/mL | solubility at 24 h [2, 7]: 0.027 mg/mL | solubility at 0.5 h [2, 8]: 0.21 mg/mL | solubility at 2 h [2, 8]: 0.2 mg/mL | solubility at 24 h [2, 8]: 0.23 mg/mL | solubility at 0.5 h [2, 9]: 1.42 mg/mL | solubility at 2 h [2, 9]: 1.36 mg/mL | solubility at 24 h [2, 9]: 2.49 mg/mL | solubility ([2]; thermodynamic from solid, water, 37° C.): ~2500 µg/mL | solubility ([3]; ACN, 50 °C, organic solvent or mixture, ACN, 50° C., read-out: Solubility at 50° C.(mg/mL)): 0.92 mg/mL | solubility ([3]; ACN, organic solvent or mixture, ACN, RT, read-out: Solubility at RT): 0.01 mg/mL | solubility ([3]; EA, 50 °C, organic solvent or mixture, EA, 50° C., read-out: Solubility at 50° C.(mg/mL)): 0.09 mg/mL | solubility ([3]; EA, organic solvent or mixture, EA, RT, read-out: Solubility at RT): 0.06 mg/mL | solubility ([3]; EtOH and water, water, EtOH and water (slightly soluble), read-out: solubility): 6 to 9 mg/mL | solubility ([3]; EtOH, 50 °C, organic solvent or mixture, EtOH, 50° C., read-out: Solubility at 50° C.(mg/mL)): 8.82 mg/mL | solubility ([3]; EtOH, organic solvent or mixture, EtOH, RT, read-out: Solubility at RT): 7.15 mg/mL | solubility ([3]; Hept, 50 °C, organic solvent or mixture, Hept, 50° C., read-out: Solubility at 50° C.(mg/mL)): 0.01 mg/mL | solubility ([3]; Hept, organic solvent or mixture, Hept, RT, read-out: Solubility at RT): 0.01 mg/mL | solubility ([3]; IPA, 50 °C, organic solvent or mixture, IPA, 50° C., read-out: Solubility at 50° C.(mg/mL)): 2.8 mg/mL | solubility ([3]; IPA, organic solvent or mixture, IPA, RT, read-out: Solubility at RT): 1.69 mg/mL | solubility ([3]; IPAC, 50 °C, organic solvent or mixture, IPAC, 50° C., read-out: Solubility at 50° C.(mg/mL)): 0.03 mg/mL | solubility ([3]; IPAC, organic solvent or mixture, IPAC, RT, read-out: Solubility at RT): 0.02 mg/mL | solubility ([3]; MEK, 50 °C, organic solvent or mixture, MEK, 50° C., read-out: Solubility at 50° C.(mg/mL)): 0.28 mg/mL | solubility ([3]; MEK, organic solvent or mixture, MEK, RT, read-out: Solubility at RT): 0.01 mg/mL | solubility ([3]; MIBK, 50 °C, organic solvent or mixture, MIBK, 50° C., read-out: Solubility at 50° C.(mg/mL)): 0.11 mg/mL | solubility ([3]; MIBK, organic solvent or mixture, MIBK, RT, read-out: Solubility at RT): 0.05 mg/mL | solubility ([3]; MTBE, 50 °C, organic solvent or mixture, MTBE, 50° C., read-out: Solubility at 50° C.(mg/mL)): 0.01 mg/mL | solubility ([3]; MTBE, organic solvent or mixture, MTBE, RT, read-out: Solubility at RT): 0.02 mg/mL | solubility ([3]; MeOH, 50 °C, organic solvent or mixture, MeOH, 50° C., read-out: Solubility at 50° C.(mg/mL)): ~102 mg/mL | Solubility at RT ([3]; MeOH, RT, hydrochloride): 54670 µg/mL | solubility ([3]; MeOH, organic solvent or mixture, MeOH, RT, read-out: Solubility at RT): ~55 mg/mL | solubility ([3]; acetone, 50 °C, organic solvent or mixture, Acetone, 50° C., read-out: Solubility at 50° C.(mg/mL)): 0.45 mg/mL | solubility ([3]; acetone, organic solvent or mixture, Acetone, RT, read-out: Solubility at RT): 0.65 mg/mL | solubility ([3]; cyclohexane, 50 °C, organic solvent or mixture, Cyclohexane, 50° C., read-out: Solubility at 50° C.(mg/mL)): 0.05 mg/mL | solubility ([3]; cyclohexane, organic solvent or mixture, Cyclohexane, RT, read-out: Solubility at RT): 0.01 mg/mL | solubility ([3]; organic solvent or mixture, most of other selected solvents (almost insoluble), read-out: solubility): < 0.5 mg/mL | XRPD at 1 d ([3]; ACN, 50° C.): Form I | XRPD at 4 d ([3]; ACN, RT): Form I | XRPD at 1 d ([3]; Acetone, 50° C.): Form I | XRPD at 4 d ([3]; Acetone, RT): Form I | XRPD at 1 d ([3]; Cyclohexane, 50° C.): Form I | XRPD at 4 d ([3]; Cyclohexane, RT): Form I | XRPD at 1 d ([3]; EA, 50° C.): Form I | XRPD at 4 d ([3]; EA, RT): Form I | XRPD at 1 d ([3]; EtOH, 50° C.): Form I | XRPD at 4 d ([3]; EtOH, RT): Form I | XRPD at 1 d ([3]; Hept, 50° C.): Form I | XRPD at 4 d ([3]; Hept, RT): Form I | XRPD at 1 d ([3]; IPA, 50° C.): Form I | XRPD at 4 d ([3]; IPA, RT): Form I | XRPD at 1 d ([3]; IPAC, 50° C.): Form I | XRPD at 4 d ([3]; IPAC, RT): Form I | XRPD at 1 d ([3]; MEK, 50° C.): Form I | XRPD at 4 d ([3]; MEK, RT): Form I | XRPD at 1 d ([3]; MIBK, 50° C.): Form I | XRPD at 4 d ([3]; MIBK, RT): Form I | XRPD at 1 d ([3]; MTBE, 50° C.): Form I | XRPD at 4 d ([3]; MTBE, RT): Form I | XRPD at 1 d ([3]; MeOH, 50° C.): Form I | XRPD at 4 d ([3]; MeOH, RT): Form I | XRPD at 1 d ([3]; Water, 50° C.): Form I | XRPD at 4 d ([3]; Water, RT): Form I | form change during the solubility testing ([3]; residual solids by XRPD): no form change | solubility ([3]; water, 50 °C, water, Water, 50° C., read-out: Solubility at 50° C.(mg/mL)): 6.73 mg/mL | solubility ([3]; water, Water, RT, read-out: Solubility at RT): 6.15 mg/mL | Purity −0 d (Area %) ([4]; 0 days (initial)): 99.77 Area % | Purity −3 d ([4]; 40° C./75% RH): 99.74 Area % | Purity −9 d ([4]; 40° C./75% RH): 99.76 Area % | Purity −3 d ([4]; 60° C.): 99.73 Area % | Purity −9 d ([4]; 60° C.): 99.74 Area % | hygroscopicity [5]: slightly hydroscopic | water uptake at 80% RH ([5]; 25° C., 80% relative humidity): 0.66% | water uptake at 90% relative humidity ([5]; 25° C., 90% relative humidity): 0.95%
